Results as given in PubChem BioAssay AID1918994 (Molecular Pharmacology Branch, DTP, NCI, 2023).

System: 292921-168-R-J2-PDC complex spheroid growth
Assay: Anticancer human tumor 292921-168-R-J2-PDC patient-derived pancreatic carcinoma cell line growth inhibition [AhR]
Settings: for IC50: curve of first compound; for viability, T/C: stronger effect = lower value
Method in brief: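 Agents were dosed in half-log steps down from roughly clinical Cmax, or from 10 microM where Cmax was unknown, alone and with AhR antagonists. Read-out: percent test/control growth of tumor spheroids containing HUVEC and MSC stromal cells.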

[1] = second compound 0.1 µM, first compound 0.0316 µM
[2] = second compound 0.1 µM, first compound 0.1 µM
[3] = second compound 0.1 µM, first compound 0.316 µM
[4] = second compound 0.1 µM, first compound 1 µM
[5] = second compound 0.1 µM, first compound 3.16 µM
[6] = second compound 0.1 µM, first compound 10 µM
[7] = second compound 0.316 µM, first compound 0.0316 µM
[8] = second compound 0.316 µM, first compound 0.1 µM
[9] = second compound 0.316 µM, first compound 0.316 µM
[10] = second compound 0.316 µM, first compound 1 µM
[11] = second compound 0.316 µM, first compound 3.16 µM
[12] = second compound 0.316 µM, first compound 10 µM
[13] = second compound 1 µM, first compound 0.0316 µM
[14] = second compound 1 µM, first compound 0.1 µM
[15] = second compound 1 µM, first compound 0.316 µM
[16] = second compound 1 µM, first compound 1 µM
[17] = second compound 1 µM, first compound 3.16 µM
[18] = second compound 1 µM, first compound 10 µM
[19] = second compound 3.16 µM, first compound 0.0316 µM
[20] = second compound 3.16 µM, first compound 0.1 µM
[21] = second compound 3.16 µM, first compound 0.316 µM
[22] = second compound 3.16 µM, first compound 1 µM
[23] = second compound 3.16 µM, first compound 3.16 µM
[24] = second compound 3.16 µM, first compound 10 µM
[25] = second compound 10 µM, first compound 0.0316 µM
[26] = second compound 10 µM, first compound 0.1 µM
[27] = second compound 10 µM, first compound 0.316 µM
[28] = second compound 10 µM, first compound 1 µM
[29] = second compound 10 µM, first compound 3.16 µM
[30] = second compound 10 µM, first compound 10 µM
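Further: spheroids exposed to compounds for seven days after three days of growth.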

Compound `CC(C)CC(NC(=O)C(Cc1ccccc1)NC(=O)c1cnccn1)B(O)O` (stereo not given) + Cc1cncc(-c2nc(NCCc3c[nH]c4ccccc34)c3ncn(C(C)C)c3n2)c1 has an IC50 (second compound 0.1 µM) of 9.77 nM, an IC50 (second compound 0.316 µM) of 9.81 nM and an IC50 (second compound 1 µM) of 9.14 nM. For the same compound, the IC50 (second compound 3.16 µM) was 6.72 nM, the IC50 (second compound 10 µM) was < 0.949 nM and the viability, T/C (second compound 0.1 µM, first compound 0.000949 µM) was 92.8%. For the same compound, the viability, T/C (second compound 0.1 µM, first compound 0.003 µM) was 109%, the viability, T/C (second compound 0.1 µM, first compound 0.00949 µM) was 51.3% and the viability, T/C (second compound 0.1 µM, first compound 0.03 µM) was 3.12%. For the same compound, the viability, T/C (second compound 0.1 µM, first compound 0.0949 µM) was 0.7%, the viability, T/C (second compound 0.1 µM, first compound 0.3 µM) was 0.59% and the viability, T/C (second compound 0.316 µM, first compound 0.000949 µM) was 89.7%. The viability, T/C (second compound 0.316 µM, first compound 0.003 µM) was 99.3%, the viability, T/C (second compound 0.316 µM, first compound 0.00949 µM) was 51.5% and the viability, T/C (second compound 0.316 µM, first compound 0.03 µM) was 3.84%. For the same compound, the viability, T/C (second compound 0.316 µM, first compound 0.0949 µM) was 0.68%, the viability, T/C (second compound 0.316 µM, first compound 0.3 µM) was 0.47% and the viability, T/C (second compound 1 µM, first compound 0.000949 µM) was 82.3%. For the same compound, the viability, T/C (second compound 1 µM, first compound 0.003 µM) was 95.5%, the viability, T/C (second compound 1 µM, first compound 0.00949 µM) was 48.7% and the viability, T/C (second compound 1 µM, first compound 0.03 µM) was 3.35%. For the same compound, the viability, T/C (second compound 1 µM, first compound 0.0949 µM) was 0.56%, the viability, T/C (second compound 1 µM, first compound 0.3 µM) was 0.95% and the viability, T/C (second compound 3.16 µM, first compound 0.000949 µM) was 62.3%. The viability, T/C (second compound 3.16 µM, first compound 0.003 µM) was 77%, the viability, T/C (second compound 3.16 µM, first compound 0.00949 µM) was 41.6% and the viability, T/C (second compound 3.16 µM, first compound 0.03 µM) was 1.9%. For the same compound, the viability, T/C (second compound 3.16 µM, first compound 0.0949 µM) was 0.89%, the viability, T/C (second compound 3.16 µM, first compound 0.3 µM) was 1.05% and the viability, T/C (second compound 10 µM, first compound 0.000949 µM) was 43.5%. For the same compound, the viability, T/C (second compound 10 µM, first compound 0.003 µM) was 53.7%, the viability, T/C (second compound 10 µM, first compound 0.00949 µM) was 19.6% and the viability, T/C (second compound 10 µM, first compound 0.03 µM) was 0.58%. It also gave a viability, T/C (second compound 10 µM, first compound 0.0949 µM) of 0.63% and a viability, T/C (second compound 10 µM, first compound 0.3 µM) of 0.51%.
`Nc1ccccc1NC(=O)c1ccc(CNC(=O)OCc2cccnc2)cc1` + Cc1cncc(-c2nc(NCCc3c[nH]c4ccccc34)c3ncn(C(C)C)c3n2)c1 showed an IC50 (second compound 0.1 µM) of 351 nM, an IC50 (second compound 0.316 µM) of 242 nM and an IC50 (second compound 1 µM) of 251 nM. The IC50 (second compound 3.16 µM) was < 31.6 nM, the IC50 (second compound 10 µM) was < 31.6 nM and the viability, T/C [1] was 75.2%. For the same compound, the viability, T/C [2] was 63.8%, the viability, T/C [3] was 48.1% and the viability, T/C [4] was 40.9%. For the same compound, the viability, T/C [5] was 27.9%, the viability, T/C [6] was 13.4% and the viability, T/C [7] was 68.2%. For the same compound, the viability, T/C [8] was 57%, the viability, T/C [9] was 49.7% and the viability, T/C [10] was 33.6%. It also gave a viability, T/C [11] of 25.7%, a viability, T/C [12] of 11.5% and a viability, T/C [13] of 58.4%. It also gave a viability, T/C [14] of 60.7%, a viability, T/C [15] of 45.7% and a viability, T/C [16] of 35.9%. The viability, T/C [17] was 22.9%, the viability, T/C [18] was 11.9% and the viability, T/C [19] was 43.5%. For the same compound, the viability, T/C [20] was 47.4%, the viability, T/C [21] was 39.3% and the viability, T/C [22] was 30.5%. It also gave a viability, T/C [23] of 17.2%, a viability, T/C [24] of 10.9% and a viability, T/C [25] of 27.8%. The viability, T/C [26] was 27.9%, the viability, T/C [27] was 22.6% and the viability, T/C [28] was 22.4%. The viability, T/C [29] was 15.4% and the viability, T/C [30] was 7.52%.
In the case of `O=C(C=Cc1cccc(S(=O)(=O)Nc2ccccc2)c1)NO` + Cc1cncc(-c2nc(NCCc3c[nH]c4ccccc34)c3ncn(C(C)C)c3n2)c1, the IC50 (second compound 0.1 µM) is reported as 374 nM, the IC50 (second compound 0.316 µM) is reported as 460 nM and the IC50 (second compound 1 µM) is reported as 280 nM. For the same compound, the IC50 (second compound 3.16 µM) was < 31.6 nM, the IC50 (second compound 10 µM) was < 31.6 nM and the viability, T/C [1] was 76%. For the same compound, the viability, T/C [2] was 59.6%, the viability, T/C [3] was 46.1% and the viability, T/C [4] was 41%. The viability, T/C [5] was 36%, the viability, T/C [6] was 3.84% and the viability, T/C [7] was 69.9%. For the same compound, the viability, T/C [8] was 61.4%, the viability, T/C [9] was 50.9% and the viability, T/C [10] was 39.9%. It also gave a viability, T/C [11] of 33.4%, a viability, T/C [12] of 3.8% and a viability, T/C [13] of 55.3%. The viability, T/C [14] was 59.7%, the viability, T/C [15] was 49.6% and the viability, T/C [16] was 35.4%. It also gave a viability, T/C [17] of 30.5%, a viability, T/C [18] of 4.08% and a viability, T/C [19] of 46.3%. It also gave a viability, T/C [20] of 46.6%, a viability, T/C [21] of 46% and a viability, T/C [22] of 31.9%. For the same compound, the viability, T/C [23] was 31.7%, the viability, T/C [24] was 4.11% and the viability, T/C [25] was 32.9%. It also gave a viability, T/C [26] of 34.2%, a viability, T/C [27] of 30.1% and a viability, T/C [28] of 29%. For the same compound, the viability, T/C [29] was 26.6% and the viability, T/C [30] was 6.63%.
For `O=C(c1cc(Cc2n[nH]c(=O)c3ccccc23)ccc1F)N1CCN(C(=O)C2CC2)CC1` + Cc1cncc(-c2nc(NCCc3c[nH]c4ccccc34)c3ncn(C(C)C)c3n2)c1, the IC50 (second compound 0.1 µM) was > 10000 nM, the IC50 (second compound 0.316 µM) was > 10000 nM and the IC50 (second compound 1 µM) was > 10000 nM. For the same compound, the IC50 (second compound 3.16 µM) was > 10000 nM, the IC50 (second compound 10 µM) was < 31.6 nM and the viability, T/C [1] was 88.1%. It also gave a viability, T/C [2] of 94.8%, a viability, T/C [3] of 85.6% and a viability, T/C [4] of 89.7%. For the same compound, the viability, T/C [5] was 89.8%, the viability, T/C [6] was 70.3% and the viability, T/C [7] was 91.6%. The viability, T/C [8] was 89.3%, the viability, T/C [9] was 88.8% and the viability, T/C [10] was 84.7%. It also gave a viability, T/C [11] of 87.9%, a viability, T/C [12] of 65.6% and a viability, T/C [13] of 84.2%. The viability, T/C [14] was 80.6%, the viability, T/C [15] was 80.6% and the viability, T/C [16] was 88.2%. For the same compound, the viability, T/C [17] was 85.5%, the viability, T/C [18] was 61.5% and the viability, T/C [19] was 61.6%. For the same compound, the viability, T/C [20] was 67.3%, the viability, T/C [21] was 69.2% and the viability, T/C [22] was 66%. It also gave a viability, T/C [23] of 68.6%, a viability, T/C [24] of 54.2% and a viability, T/C [25] of 44%. The viability, T/C [26] was 47%, the viability, T/C [27] was 44.9% and the viability, T/C [28] was 44.5%. The viability, T/C [29] was 43.4% and the viability, T/C [30] was 37.2%.
